# In a melting point compilation (Tetko et al.; mined from patent text by program, amines drawn as free bases though some values may be those of a salt):
row,Compound,melting point [°C]
1,COC(=O)C(C)(C)Cc1c(SC(C)(C)C)c2cc(OCc3ccc4cc(F)c(F)cc4n3)ccc2n1Cc1ccc(Cl)cc1,171 to 173
2,COc1ccc(NC(=O)Nc2ccc(Cl)c(Cl)c2)cc1NS(=O)(=O)c1cccs1,205 to 208
3,CCOC(=O)C(C)c1ccc2nc(-c3ccccc3)oc2c1 (stereo not given),46
4,O=S(=O)(c1cc(Cl)ccc1Cl)n1c2cc(O)c(O)cc2c2ccc(O)c(O)c21,> 300
5,CN1CCCC1=C(C#N)c1ccc([N+](=O)[O-])cc1,67
6,C[Si](C)(C)C#Cc1c[nH]c(=O)[nH]c1=O,187 to 189
7,CCOc1ccncc1NS(=O)(=O)c1nc2cc(C)nc(OC)n2n1,184 to 186
8,CCOC(=O)C(NC(=O)CNC(N)=O)C(=O)OCC,140 to 142
9,CC(C(=O)OCc1ccc([N+](=O)[O-])cc1)N(C(=O)OC(C)(C)C)C1CC1 (stereo not given),117 to 118
10,CCCCCCCCCCCCCCCCOc1ccc(-c2nc(CC(=O)OCC)c(OCC)o2)cc1,44 to 45
11,O=Cc1cn(-c2ccc(Cl)cc2)nc1-c1ccc([N+](=O)[O-])o1,192 to 193
12,CCS(=O)(=O)NC(C(=O)NCCc1ccc(OC)c(OC)c1)c1ccc(Cl)cc1 (stereo not given),136 to 138
13,CCS(=O)(=O)Nc1cccc(C=C2c3ccccc3CCc3ccccc32)c1,180
14,CCOC(=O)C(C)Oc1ccc(Oc2nc3ccc(Cl)nc3s2)cc1 (stereo not given),60 to 62
15,NS(=O)(=O)c1cc2c(s1)S(=O)(=O)CC=C2,210 to 212
16,NCC1CCN(CC(=O)Nc2cccc3c2C(=O)c2c-3n[nH]c2-c2ccc(N3CCNCC3)cc2)CC1,239
17,COC(=O)[C@@H]1CCCN1C(=O)CCC(=O)c1ccc(Br)cc1,78 to 82
18,COc1ccc(CCC(C)(C)NCC(O)c2cccc(Cl)c2)cc1 (stereo not given),50 to 53
19,CCN(CC)C(=O)Oc1nc(C)c2cc(OC)c(OC)cc2c1N,206 to 207
20,CNS(=O)(=O)Cc1ccc(NC(=O)C(F)(F)F)c(Br)c1,170
21,O=S(=O)(Cl)c1ccc(Oc2ccc(Br)cc2)cc1,80.9
22,CC1CCCN(c2cccc3c2C(=N)NC3N)C1 (stereo not given),104
23,CN(C)c1nc2n(n1)CCc1ccccc1-2,66 to 68
24,CN1CCN(S(=O)(=O)c2cccc(NC(=O)c3cnn4c(C(F)(F)F)cc(-c5ccc(Cl)c(Cl)c5)nc34)c2)CC1,181
25,COc1cc(C(C)=O)ccc1OCCCCCN1CCC(C(O)(c2ccc(F)cc2)c2ccc(F)cc2)CC1,118

row,Compound,melting point [°C]
1,O=C(O)c1cn(-c2cccc(I)c2)cn1,229 to 230
2,COc1ccc(-n2c(-c3ccc(Cl)cc3Cl)nc(C(=O)NC3CCCCC3)c2C)cc1,160 to 161
3,Cc1cc2c(cc1C)C(c1ccccc1)(C(F)(F)C(F)(F)F)c1cc3c(cc1O2)Oc1cc(C)c(C)cc1C3(c1ccccc1)C(F)(F)C(F)(F)F (stereo not given),228 to 233
4,OCCN1CCN(C(c2ccccc2)(c2ccccc2)c2ccccc2)CC1,82
5,Cc1ccc(C(=O)Nc2ccc3ccc(Cl)nc3n2)nn1,258
6,Cc1nc(O)c(C)c(O)n1,300
7,CCOC(=O)Cc1c2n(c3ccc(F)cc13)C(c1ccc(SC)cc1)=NCC2,119 to 120
8,CC#CC1(O)CCC2C3CCC4=CC(=O)CCC4C3CCC21CC (stereo not given),124 to 125
9,COCCNC(=O)COC1c2ccccc2C(=O)N1c1ccc2ccc(OC)nc2n1 (stereo not given),172
10,CCN(CC)C(=O)Nc1ccc2c(c1)C(c1ccccc1F)=NCC(=O)N2C,138 to 139
11,CCOC(=O)c1c[nH]c2cccc(O)c12,151 to 153
12,NCc1c(-c2ccc(O)cc2)nnn1-c1ccc(C(F)(F)F)cc1Cl,96.5 to 98.9
13,COc1cc2c(cc1OC)C(NCC(=O)O)CC2 (stereo not given),213 to 216
14,CC1(C)CCSc2cc(-c3cc(-c4ccc(C(=O)O)cc4)ccc3-c3ccccc3)ccc21,180
15,Fc1ccc(-c2cnc(SC(F)(F)F)nc2-c2ccc(F)cc2)cc1,80 to 83
16,CCCc1nc2ccccc2c(=O)n1Cc1ccc(-c2ccccc2-c2nnn[nH]2)cc1,171 to 172
17,CCOC(=O)CCCn1cc(C(=O)c2ccc(N)c(OCCCCl)c2)c2ccccc21,93 to 95
18,CN(C)CCNc1cc(CNc2ccccc2C(=O)Nc2cccc(C(F)(F)F)c2)ccn1,100
19,O=Cc1nn(-c2ccc(F)cc2)c2c1CCC2,123 to 125
20,CNC(=O)c1cccc(C=O)c1,101 to 102
21,Nc1ccc(-c2cnn3c(O)ncnc23)cc1,> 300
22,CCCCCCCCCCCCn1nnc(NC2CCCCC2)n1,51 to 53
23,Cc1noc(NC(=O)N2CCN(c3nc(-c4cccc(Cl)c4Cl)cs3)CC2)c1C,175 to 176
24,Cn1c2ccc(Br)cc2c2sccc(=O)c21,243 to 244
25,C=C(Cl)COc1ccc(Br)cc1CN(CC)c1ccc(C(=O)O)cn1,207 to 209

row,Compound,melting point [°C]
1,CCn1c(=O)c2[nH]c(/C=C/c3cccc(OC)c3)nc2n(CC)c1=O,271 to 272
2,OCCC1(c2ccc(Cl)c(Cl)c2)CCCNC1 (stereo not given),122
3,COc1cc(-c2cc(Br)cs2)cc2oc(=O)c(C)c(C)c12,131 to 134
4,CS(=O)c1ccc2c3c(cccc13)C(=O)N2 (stereo not given),178 to 185
5,Cc1ccc(S(=O)(=O)OCCN2CN(C)C(=S)N(c3ccc(C)cc3C)C2)cc1,82 to 85
6,COc1cccc(OC)c1Cl,69 to 71
7,O=c1c2c(Cl)cc(Cl)cc2n(Cc2ccccc2)c(=O)n1Cc1ccc(Cl)cc1,161 to 165
8,COC(=O)Cn1c(=O)n(C)c(=O)n(-c2cc(F)ccc2[N+](=O)[O-])c1=O,122
9,COc1ccnc(CCc2nc3cc(-c4ccc5[nH]ccc5c4)cnc3[nH]2)c1,241 to 242
10,COc1ccc(F)c(N)c1,27 to 28
11,CC1NC(=O)NN=C1c1ccc(NC(=O)CO)cc1 (stereo not given),246 to 248
12,COC(=O)C1(c2cc(C#N)ccc2O)CCCC1,113 to 118
13,COc1cc(C(C)C)c(Oc2cnc(N)nc2N)cc1N1CCN(S(C)(=O)=O)CC1,115 to 117
14,O=S(=O)(c1ccc(O)cc1)N1c2ccc(Br)cc2-c2ccccc2C1c1ccccc1 (stereo not given),262 to 265
15,CCn1cnc2c(Nc3cccc(Cl)c3)nc(N3CCCC(N)C3)nc21 (stereo not given),165
16,O=C(NC1CC1)c1ccc(F)c2c1CC(N(CCCc1c[nH]c3ccc(F)cc13)C1CCC1)CO2 (stereo not given),134
17,C=CCc1ccc(C[C@H](NC(=O)OC(C)(C)C)C(=O)OC)cc1,56 to 59
18,[N-]=[N+]=Nc1ccc(Cl)cc1C(=O)c1ccccc1,81 to 83
19,Cc1noc([C@@H](Cc2ccccc2)NC(=O)[C@@H](Cc2ccc3ccccc3c2)NC(=O)C2CCN(C(=O)OC(C)(C)C)CC2)n1,152 to 155
20,COc1ccc2[nH]c3c(c2c1)C[C@@]1(C)C(=O)N(CCn2ccnc2)C(=O)N1[C@@H]3c1cccc(O)c1 (racemic),321 to 324
21,CNC(=O)c1cccc(NC(=O)Cc2cccc3sccc23)c1,192
22,Cc1ccc2c(=O)n(S(=O)(=O)c3ccc(Cl)cc3)c(=O)[nH]c2c1C,241 to 245
23,O=C(O)c1cccc(Oc2ccc([N+](=O)[O-])cc2Cl)c1,172 to 173
24,COc1cc(N)c(Cl)cc1C(=O)NC[C@H]1CCN(CCCCCC(=O)c2ccccc2)C[C@H]1OC (relative stereo),99 to 101
25,CSc1c(N)nc(N2CCOCC2)nc1Cl,115

row,Compound,melting point [°C]
1,CC(=O)Nc1cccc(CNc2nc(Nc3cccc(NS(C)(=O)=O)c3)nc3[nH]cnc23)c1,159 to 162
2,CCOC(=O)C(=O)NNC(=O)c1cc(C)cc(C)c1,159
3,CNC(=S)C1(c2cccnc2)CCCCC1=O (stereo not given),188 to 190
4,CSC1Oc2cc3ccccc3cc2C1=O (stereo not given),118 to 120
5,O=c1nc(-c2ccnc(-c3cccs3)c2)sc2ccccc12,160 to 161
6,N#CC(C#N)=Cc1ccc(OCc2ccccc2)cc1,146 to 148
7,CSc1nc2c(NCc3ccccc3)nc(NCCCO)nc2n1C(C)C,64 to 67
8,COc1cc([N+](=O)[O-])c(O)c(OC)c1OC,72 to 73
9,CN1C(C(=O)Nc2ccccn2)=C(O)c2sc3ccccc3c2S1(=O)=O,222 to 224
10,COC(=O)c1ccc(C(=O)C=C(c2cc(Cl)cc(Cl)c2)C(F)(F)F)cc1,65.5 to 67.5
11,Cn1ncnc1COc1nn2c(-c3ccc(F)cc3)nncc2c1-c1ccccc1F,191
12,CCOC(=O)c1c(C)nn2ccc3c(c12)C(CC#N)CC3 (stereo not given),136 to 140
13,c1ccc2c(c1)CC1(CCN(CCc3c[nH]c4ccccc34)CC1)O2,167 to 169
14,CC(=O)OC(CN1C(=O)N(C(C)=O)C2(CC(C)(C)N(C(C)=O)C(C)(C)C2)C1=O)CN1C(=O)N(C(C)=O)C2(CC(C)(C)N(C(C)=O)C(C)(C)C2)C1=O,286 to 288
15,COC(=O)C=Cc1c(C(=O)OC)[nH]c2c(C)ccc(C)c12,135 to 136
16,CSc1cc(C(C)=O)ccc1OCCCBr,120 to 122
17,O=[N+]([O-])c1ccc2c(c1)NP(=O)(N(CCCl)CCCl)NC2 (stereo not given),168 to 170
18,CC#CC1(O)CCC2C3CCC4=CC(=O)CCC4C3CCC21CCC (stereo not given),182 to 184
19,COCCNC(=O)c1n[nH]cc1NC(=O)c1ccccn1,166 to 167
20,COC(Cc1ccc2oc(Cc3nc(-c4ccccc4)oc3C)cc2c1)C(=O)O (stereo not given),159 to 160
21,N#Cc1cnc2cc3ccccc3cc2c1Cl,253 to 255
22,CCOc1ccc(C2(C(=O)O)CC(F)(F)C2(F)F)cc1 (stereo not given),194
23,CC(=O)NC[C@H]1CN(c2ccc3c(c2)C[C@@H](C)N3C=O)C(=O)O1,158 to 159
24,COc1ccc(C2Sc3cccc4cccc(c34)NC(=O)C2O)cc1 (stereo not given),218 to 219
25,CC(=O)NCc1ccc2c(c1)N(C1CCN(CCc3ccccc3F)CC1)CC2,160 to 161
